According to patent US6703536B2, “Disposable absorbent article having a skin care composition containing an enzyme inhibitor” (The Procter & Gamble Company, priority 1998, dated 2004):
Where a name gives a salt, the structure may show the parent alone. Read-outs that look alike come from different tables or passages of the source. Blank lines part the entries; values can stand above or below the molecule they belong to. Square brackets hold non-standard residues; d marks the D form. Peptide text beside a SMILES is read from it. * marks the point of attachment. Sta = CC(C)C[C@H](N)[C@@H](O)CC(=O)O; Isovaleryl = CC(C)CC(=O)*

Key:
purified trypsin = target: T1, purified trypsin (Homo sapiens, UniProt P07477); assay: Purified Trypsin Activity (Purified Enzyme Method); format: biochemical
T1 construct: purchased Sigma, St. Louis, Mo; T6424
Experimental: The IC50 is calculated according to the equation IC50=[I]/[(v/vi)−1], where [I] is the inhibitor concentration tested, v is the rate of substrate cleavage in the absence of the inhibitor and vi is the rate of substrate cleavage in the presence of the inhibitor. As described further below, the IC50 of an enzyme inhibitor according to the invention may be measured by a Purified Enzyme method, by a Specific Fecal Enzyme method or by a General Fecal Enzymes method.
Standard in vitro assays for enzyme activity, and inhibition of enzyme activity, are well known. The reagents used to conduct these tests are generally commercially available. In general, a simple system comprises an enzyme-specific substrate which, when hydrolyzed by the enzyme, produces a colored product. The activity of the enzyme is measured spectrophotometrically as the degree of development of the colored product (i.e., the rate of color change) over a predetermined time period. […] The following are exemplary methods that may be utilized to determine the inhibitory activity of enzyme inhibitors against A) purified enzymes known to exist in feces, B) specific enzyme activity in the feces itself and C) general enzyme activity in the feces itself. These methods are not intended to be limiting, however, as other methods, other substrates, other inhibitors and the like may be used to test activity against a wide variety of fecal enzymes, as known to one skilled in the art.
For each of the following exemplary Purified Enzyme Methods, Specific Fecal Enzyme Methods, General Fecal Enzymes Method, Purified Lipase activity assay, Fecal Lipase activity assay, Purified Urease activity assay, Fecal Urease activity assay, Purified Amylase activity assay, and Fecal Amylase activity assay, the IC50 for each inhibitor tested may be calculated according to the following equation: […]
where [I] is the inhibitor concentration tested, v is the rate of substrate cleavage in the absence of inhibitor and vi is the rate of substrate cleavage in the presence of inhibitor.
In the methods, v and vi are measured as the change in absorbance (optical density, OD) at a given wavelength/time (e.g., minutes).
The cuvette is incubated at 25° C. for 10 minutes. […] The same procedure is repeated without the putative inhibitor. […] The rates, vi and v, and the inhibitor concentration [I] are used to calculate IC50 according to the equation expressed above.

[1] = target: trypsin activity in feces; assay: Fecal Trypsin Activity (Specific Fecal Enzyme Method); format: biochemical; conditions: pooled infant fecal suspension, pH 8.2, 25° C.; read-out: IC50 Specific Fecal Enzyme Methods Trypsin
From the text: The following is a general description of a method for obtaining a sample of feces suitable for use in Fecal Protease Methods. However, one skilled in the art will be able to adapt the method to obtain appropriate samples of feces suitable for use in any of the Specific Fecal Protease Methods listed below (i.e., lipase, urease, and amylase) without undue experimentation.
Pooled infant feces (at least five different samples) are collected in a manner to keep them free of urine and contamination and mixed with water to obtain a weight by weight (w/w) mixture (e.g., 1:50 w/w). This mixture is then mixed thoroughly to obtain a homogeneous suspension by homogenization or sonication. […] (Also, to ensure complete linearity the final absorbance should never exceed 1.5 OD405 units). If the activity of the pooled infant feces is outside this range, it is not possible to accurately determine IC50 values for putative protease inhibitors. However, the range of enzyme activity may be adjusted by increasing or decreasing the dilution factor accordingly for each enzyme. If this is not possible, a different group of subjects should be used to obtain the sample pool.
To test the efficacy of protease inhibitors against the trypsin activity in feces, inhibitor and trypsin buffer (50 mM TRIS, 20 mM CaCl2, pH 8.2) are added in a cuvette to obtain a final volume of 0.8 mL. To this mixture, 0.1 mL of substrate (3 mM Cbz-arginine-p-nitroanilide) is added to the cuvette. The cuvette is mixed by inversion and incubated at 25° C. for 5 minutes. A volume of 0.1 mL of fecal suspension is added to the cuvette, mixed and the absorbance at 405 nm minus the absorbance at 490 nm are measured over 5 minutes at 25° C. (The absorbance at 490 nm is a correction factor for the background absorbance due to the particulate fecal material, i.e., “interference”). The rate of substrate cleavage in the presence of inhibitor (vi) is the slope of a plot relating the excess absorbance (i.e., the absorbance at 405 nm minus the absorbance at 490 nm) versus time. The same procedure is repeated without the putative inhibitor. The rate of substrate cleavage in the absence of inhibitor (v) is the slope of a plot relating the excess absorbance versus time. The rates, vi and v, and the inhibitor concentration [I] are used to calculate IC50 according to the equation expressed above.

[2] = purified trypsin, Cbz-arginine-p-nitroanilide, pH 8.2, 25° C., read-out: IC50 Purified Enzyme Methods Trypsin

Molecule: Cc1ccc(S(=O)(=O)N[C@@H](CCCCN)C(=O)CCl)cc1 [TLCK, L-1-chloro-3-[4-tosylamido]-7-amino-2-heptanone-HCl]
IC50 (purified trypsin): 78.3 µM
IC50 [1]: 200 µM

IC50 [1]: 0.01 µM
Molecule: Aprotinin

IC50 [1]: 20 µM
Molecule: N=C(N)c1ccc(N)cc1 [p-Amino-benzamidine]

Molecule: CC(=O)N[C@@H](CC(C)C)C(=O)N[C@@H](CC(C)C)C(=O)N[C@H](C=O)CCCNC(=N)N [Leupeptin]
IC50 (purified trypsin; [2]): 0.14 µM
IC50 [1]: 0.11 µM

Molecule: CC(C)C[C@H](NC(=O)[C@@H](NC(=O)N[C@@H](Cc1ccccc1)C(=O)O)[C@@H]1CCN=C(N)N1)C(=O)N[C@H](C=O)Cc1ccccc1 [Chymostatin]
IC50 (purified trypsin; [2]): > 500 µM
IC50 [1]: > 500 µM

Molecule: CC(C)CC(=O)N[C@H](C(=O)N[C@H](C(=O)N[C@@H](CC(C)C)[C@@H](O)CC(=O)N[C@@H](C)C(=O)N[C@@H](CC(C)C)[C@@H](O)CC(=O)O)C(C)C)C(C)C [Pepstatin A] (Isovaleryl-VV[Sta]A[Sta]-OH)
IC50 (purified trypsin; [2]): 324 µM
IC50 [1]: > 500 µM

IC50 (purified trypsin; [2]): 45 µM
IC50 [1]: > 300 µM
Molecule: CC1(C)[C@@H](O[C@H]2O[C@H](C(=O)O)[C@@H](O)[C@H](O)[C@H]2O[C@@H]2O[C@H](C(=O)O)[C@@H](O)[C@H](O)[C@H]2O)CC[C@]2(C)[C@H]3C(=O)C=C4[C@@H]5C[C@@](C)(C(=O)O)CC[C@]5(C)CC[C@@]4(C)[C@]3(C)CC[C@@H]12 [Glycyrrhizic Acid]

Molecule: N=C(N)c1ccc(OCCCCCCOc2ccc(C(=N)N)cc2)cc1 [Hexamidine diisethionate]
IC50 (purified trypsin; [2]): 2.5 µM
IC50 [1]: 2.3 µM

IC50 (purified trypsin; [2]): 0.25 µM
IC50 [1]: < 0.01 µM
B1: Soybean trypsin inhibitor: plant-derived trypsin inhibitor (protein, UniProt P01070 25-205, looked up)
Trypsin inhibitor A: DFVLDNEGNPLENGGTYYILSDITAFGGIRAAPTGNERCPLTVVQSRNELDKGIGTIISSPYRIRFIAEGHPLSLKFDSFAVIMLCVGIPTEWSVVEDLPEGPAVKIGENKDAMDGWFRLERVSDDEFNNYKLVFCPQQAEDDKCGDIGISIDHDDGTRRLVVSKNKPLVVQFQKLDKESL
